What was measured:
[1] = system: DNA templates S5P-tDNAR or T7P-tDNAR; experiment: Run-off synthesis of small RNA (tRNA^Arg), analytical scale, denaturing gel; format: biochemical; conditions: for N+1 product in tRNA^Arg synthesis: 37° C., 22, 67, 200 nM enzyme; for N+1 product in run-off products: all temperatures (16° C., RT, 37° C.) and KCl concentrations examined
Excerpt: FIGS. 10A-10B depict a comparison of T7 and Syn5 RNA polymerase in run-off synthesis of small RNA. A) Effect of temperature and salt concentration on the RNA synthesis by T7 and Syn5 RNA polymerase. B) Similar as A) except that His-tagged T7 RNA polymerase was used.
(§1) FIGS. 11A-11B depict synthesis of tRNA^Arg by Syn5 and T7 RNA polymerase. A) Synthesis of tRNA^Arg at analytical scale by various amounts of Syn5 and T7 RNA polymerase. Using radioactively labeled CTP, the tRNA^Arg and N+1 product (as marked) produced by 22, 67, 200 nM Syn5 and T7 RNA polymerase at 37° C. are shown. […] The DNA encoding E. coli tRNA^ArgACG is directly downstream of a Syn5 or T7 promoter for the cognate RNA polymerase to synthesize run-off tRNA transcript. B) Synthesis of tRNA^Arg at preparative scale by Syn5 and T7 RNA polymerase. The sequencing gel is showing the analysis of the total RNA products by Syn5 and T7 RNAP at 37° C. in a 200 µl reaction. RNAs were purified by either ZYMO RNA clean kit or phenol/chloroform extraction followed by ethanol precipitation (P/C/E), as noted on top of the gel. The native tRNA^Arg (with modifications) overexpressed and purified from E. coli cells was used as a size marker. The two major bands in the total RNAs are tRNA^Arg and N+1 product as marked.
FIGS. 12A-12B depict synthesis of long run-off product and the incorporation of modified nucleotides by Syn5 and T7 RNA polymerase. A) On the linearized plasmid template as shown in the schematic, the production of RNA by either RNA polymerase (10 nM) was analyzed on agarose gel as lane 2. […] Lane 3 and 4 show the same RNA synthesis when CTP was replaced by 5mCTP and UTP by Ps-UTP, respectively. B) Incorporation of UTP or Ps-UTP into small RNA by 22, 67, and 200 nM Syn5 and T7 RNA polymerase as analyzed by denaturing TBE polyacrylamide gel. Full-length run-off product and the N+1 product are shown.
DNA templates for transcription assays were either plasmids or dsDNA fragments made of synthesized oligonucleotides. To test the processivity of Syn5 and T7 RNAP, a single Syn5 or T7 promoter plus 3 guanosine downstream of the promoter (Syn5 5′-ATTGGGCACCCGTAAGGG-3′ (SEQ ID NO:1) or T7 5′-[…]-3′) (SEQ ID NO:2) was inserted between the BamHI and XbaI sites of plasmid pUC19 to form pUC19-S5P or pUC19-T7P. The templates for run-off tRNA^Arg synthesis were formed by annealing of two complementary synthesized DNA oligos of which sequences are as following:
For the results shown in FIG. 10, reaction mixtures (10 μl) contained 40 mM Tris-HCl pH 8.0, 6 mM MgCl2, 2 mM spermidine, 10 mM DTT, 200 µm[…]P, GTP and UTP, 10 µM [[…]-^32P]CTP, 1.5 U/µl RNaseOUT™ recombinant ribonuclease inhibitor, 0.5 μM DNA templates S5P-tDNAR or T7P-tDNAR, 100 nM Syn5 or T7 RNAP, and various amount of KCl as noted in the figure. Reactions were carried out at various temperatures of 16° C., room temperature, or 37° C. for 30 min before adding of one unit of DNase I to each reaction mixture and an additional incubation of 15 min at 37° C. Reactions were then terminated by the addition of 4 µl of loading dye containing 95% formamide and 40 mM EDTA. Samples were then heated at 90° C. for 1 min and 4 µl sample each was loaded onto 15% TBE-Urea denaturing polyacrylamide gels. After electrophoresis, gels were dried and analyzed using a Fuji BAS 1000 Bioimaging Analyzer.
For the results shown in FIG. 11A, reaction mixtures (10 μl) containing 40 mM Tris-HCl pH 8.0, 6 mM MgCl2, 2 mM spermidine, 10 mM DTT, 200 µM[…]P, GTP and UTP, 10 µM [[…]-^32P]CTP, 1.5 U/µl RNaseOUT™ recombinant ribonuclease inhibitor, 0.5 μM DNA templates S5P-tDNAR or T7P-tDNAR, and various amount of Syn5 or T7 RNAP were incubated at 37° C. for 30 min before adding of one unit of DNase I to each reaction mixture and an additional incubation of 15 min at 37° C. Reactions were then terminated by the addition of 4 µl of loading dye containing 95% formamide and 40 mM EDTA. […]

[2] = system: DNA templates S5P-tDNAR or T7P-tDNAR; experiment: Synthesis of tRNA^Arg at preparative scale, sequencing gel; format: biochemical; conditions: 200 µl reaction, 37° C.
Description: as §1, with “RNAs were purified by either ZYMO RNA clean kit or phenol/chloroform extraction followed by ethanol precipitation (P/C/E), as noted on top of the gel. The native tRNA^Arg (with modifications) overexpressed and purified from E. coli cells was used as a size marker. The two major bands in the total RNAs are tRNA^Arg and N+1 product as marked.” left out
For the results shown in FIG. 11A, reaction mixtures (10 μl) containing 40 mM Tris-HCl pH 8.0, 6 mM MgCl2, 2 mM spermidine, 10 mM DTT, 200 µM[…]P, GTP and UTP, 10 µM [[…]-^32P]CTP, 1.5 U/µl RNaseOUT™ recombinant ribonuclease inhibitor, 0.5 μM DNA templates S5P-tDNAR or T7P-tDNAR, and various amount of Syn5 or T7 RNAP were incubated at 37° C. for 30 min before adding of one unit of DNase I to each reaction mixture and an additional incubation of 15 min at 37° C. […] After electrophoresis, gels were dried and analyzed using a Fuji BAS 1000 Bioimaging Analyzer. […] RNA quantification was based on OD260 measurement using NANOPHOTOMETER (IMPLEN). […]

Row | Molecule | run-off synthesis at high salt ([1]; 160 mM KCl) | N+1 product in tRNA^Arg synthesis [1] | N+1 product in run-off products [1] | products when UTP replaced by Ps-UTP ([1]; small RNA, radioactively labeled CTP) | N+1 products in total products [2] | run-off synthesis at high salt ([1]; 250 mM KCl)
1 | T7 RNAP: RNA polymerase encoded by bacteriophage T7, from New England Biolabs [reference compound] | little activity | more N+1 product than the desired product | abundant amounts of the N+1 product | produced predominantly N+1 products | more than 50% | 
2 | Syn5 RNAP: single subunit DNA-dependent RNA polymerase from marine cyanophage Syn5, amino acid sequence SEQ ID NO:23 (protein, Amino acid sequence of a cyanophage Syn5 RNAP) MSFDLIARQLQRETEAAELARKRLQDARREANERSYASSNIESRKAIATFLDPIAQRIGERLFTLRRGTGAVDAAEVYKHLKNADHHHLALITMKTALDVLGKDPEPQIQQLTTAIGRNIQLELRLTYYAEENPELYKQASRFFHAGTGTRQKATVIKLKFNREGIEWDQWSRVTCHKVGQWLMLAMADVTGWIERATDRTSGGRKTKTRICYSREFLQHRDTILAAAEQLAFCQWPMLCPPIEWSNDHNGGYLSEQIRRVNPLIRKTGPLGTRKQGDIPLAMLNNLQGQAYKVNPEVLDIANHCYESNVTVGKFIRHAPLPVPPSPGEDCTEDQLTAYKRARREAEDFNAQISQKNWRTTEVMYVARKYADEASFWMPASFDYRGRVYFLNTALNPQGTDFDKALLYFAEEGPVNEWWLSFHVATTYGLDKETMVNRVQWARDNHELIDRIASDPVRHTEWHDADEPWCFLAACLEYKACVIDGTKQTSGLPIGIDATCSGLQHLAAMTRCGRTAALVNVTPTDKPADAYKTVAQASLKHLPKEQHEWITRKVTKRPVMCTPYGVTMSSARGYIRDQLVKDGHKEDLRSPGVLNGIVKAIFNEAIPEVIPGPVQVMAWLKRSAGQIIDRGDSTITWTTPSGFEVVQDLKKSKTYEVKTRIMGGARIKLQVGDGFTDEPDRDHHKSALAPNVVHSNDASLLHLTFAFWDKPFTVIHDCVLGRSCDMDQMGSDIRLHFAEMYKADVMQDWADQVGVELPVDLIKNTLDIDSVNQSLYFFS |  | absence of N+1 product | did not contain detectable N+1 product band |  | negligible | produces significant amounts of product
